One test concerns the target T1, hTRPV3 (Homo sapiens, UniProt Q8NET8).
T1 construct: expressed in transfected cells; host or cells: HEK293T
T1 sequence (Q8NET8 1-790): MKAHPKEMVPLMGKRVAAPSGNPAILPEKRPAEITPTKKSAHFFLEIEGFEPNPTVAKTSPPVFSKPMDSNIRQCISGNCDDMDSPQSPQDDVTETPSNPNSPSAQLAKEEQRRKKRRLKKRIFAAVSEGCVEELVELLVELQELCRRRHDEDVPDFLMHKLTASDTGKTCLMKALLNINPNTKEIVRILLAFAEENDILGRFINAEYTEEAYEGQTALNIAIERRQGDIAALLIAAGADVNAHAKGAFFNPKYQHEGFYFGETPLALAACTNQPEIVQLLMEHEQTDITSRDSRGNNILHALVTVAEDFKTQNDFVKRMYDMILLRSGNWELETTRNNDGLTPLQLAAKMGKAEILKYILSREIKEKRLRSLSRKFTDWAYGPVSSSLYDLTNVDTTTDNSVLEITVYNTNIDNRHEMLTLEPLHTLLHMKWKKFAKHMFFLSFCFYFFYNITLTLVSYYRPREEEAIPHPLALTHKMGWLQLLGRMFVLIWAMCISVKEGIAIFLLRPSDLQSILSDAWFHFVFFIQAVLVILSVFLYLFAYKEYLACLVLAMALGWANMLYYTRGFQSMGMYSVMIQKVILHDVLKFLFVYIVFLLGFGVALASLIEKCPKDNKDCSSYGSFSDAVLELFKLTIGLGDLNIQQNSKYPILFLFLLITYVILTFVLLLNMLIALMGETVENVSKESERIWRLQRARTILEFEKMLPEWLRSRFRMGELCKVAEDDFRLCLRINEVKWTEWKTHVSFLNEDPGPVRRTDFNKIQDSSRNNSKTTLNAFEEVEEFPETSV
Nature of the test: single-channel inside-out patch recordings of hTRPV3 in HEK293T cells. To be noted: for single-channel open probability: n = 5. The format is cell-based. As to the method: HEK293T cell line was obtained from the Cell Resource Center, Peking Union Medical College. HEK293T cells were maintained in Dulbecco’s modified Eagle’s medium (DMEM, Gibco) supplemented with 10% fetal bovine serum at 37 °C with 5% CO2. HEK293T cells were seeded onto glass coverslips 1 day in advance and transiently transfected with […] complementary deoxyribonucleic acids of human TRPV3 (hTRPV3, accession number NM_145068.4), hTRPV1 (accession number NM_080704.3), mTRPV2 (accession number NM_011706.2), hTRPV4 (accession number NM_021625.5), hTRPA1 (accession number NM_007332.3), and hTRPM8 (accession number NM_024080.5) through Lipofectamine 2000 (Invitrogen) following the manufacture’s protocol. The next day, determine the plasmid transfection status by observing green fluorescence based on expression of enhanced GFP as an indicator. […] As for the relative fluorescence intensity, we convert the image to 8 bit grayscale using ImageJ (Https://imagej.net/software/fiji/downloads) and set an appropriate threshold value to reduce background noise and enhance the image contrast.
All patch-clamp recordings were conducted 16 to 24 h after transfection using an EPC10 amplifier powered by PatchMaster software (HEKA) (https://www.heka.com/downloads/downloads_main.html#down_patchmaster) at room temperature. The borosilicate glass pipettes were pulled using a DMZ universal electrode puller (Zeitz-Instruments GmbH) to achieve the resistances of three to 5 MΩ (for whole-cell recordings) or five to 9 MΩ (for inside-out patch recordings). Currents were recorded at a potential ramp from −100 mV to +100 mV for 1000 ms with 1000-ms intervals (for whole-cell recordings) or a persistent potential of −60 mV (inside-out patch recordings). Both pipette solution and bath solution contained (in mM): 130 NaCl, 3 Hepes, and 0.2 EDTA (pH = 7.2–7.4). All recording data were analyzed using Igor Pro (Wave-metrics) (https://www.wavemetrics.com/order/order_igordownloads.htm) and Origin 8.6 (Origin Lab) (https://www.originlab.com/doc/zh/Quick-Help/Download-Installer).

For test [1], the system named is HEK293T cells expressing hTRPV3. As to the kind of experiment: Hoechst 33342/propidium iodide double staining cell death assay. Type of test: cell-based. To be noted: inhibitor 20 μM added 1 h before Car 300 μM. On the procedure:
For cell death assay, HEK293T cells transfected with hTRPV3 were seeded in 6-well plates and randomly divided into different groups. TRPV3 and NF-κB inhibitors were added 1 h before the addition of Car. After administration of Car for 1 h, cell death was detected using Hoechst 33342/propidium iodide Double Stain Kit (Solarbio). After staining, cells were resuspended with PBS buffer. Five random view images in each group were taken under a microscope (Eclipse Ti, Nikon) and counted using ImageJ software (National Institutes of Health).

SMILES strings stand for the structures.

Regarding `O=C(/C=C/c1ccc(O)c(O)c1)O[C@H](Cc1ccc(O)c(O)c1)C(=O)O` [ROSA, rosmarinic acid], the single-channel open probability at hTRPV3 (ROSA 100 μM co-perfused with 2-APB 50 μM) is 0.13 ± 0.05; at hTRPV3 (ROSA 100 μM co-perfused with Car 300 μM), 0.28 ± 0.06. In addition, the “effect on channel unitary conductance” value on hTRPV3 (ROSA 100 μM with 2-APB 50 μM or Car 300 μM) is reported as “without altering the channel unitary conductance”. For the same compound, the cell death ratio in test [1] is on record as 17%.

(Values after PMC12206033, “Selective inhibition of TRPV3 channel by natural rosmarinic acid and its analogs for alleviation of skin lesions through downregulation of NF-κB pathway” (The Journal of Biological Chemistry, 2025).)
